Test results taken from US9309304B2, “Glycation cross-link breakers to increase resistance to enzymatic degradation” (NEW YORK SOCIETY FOR THE RUPTURED AND CRIPPLED MAINTAINING …, priority 2012, dated 2016).

Legend:
[1] = Relative fluorescence of solubilized fibers; format: physicochemical, rat; conditions: 7 days of 0.2 M ribose exposure, about 460 nm
Procedure: Ribose incorporation into fibers over time was assessed by fluorescence of solubilized fibers following 0 to 10 days of incubation (Verzijl et al. 2002). Fibers were incubated in 0.2 M ribose solution (solution was exchanged with fresh ribose solution at day 3) and sample fibers were removed daily, rinsed in PBS, and then stored at 4° C. until the end of the time course. Fibers were weighed, then dissolved at 60° C. in a 1:20 dilution of papain (Carica Papaya, Roche Diagnostics, Indianapolis, Ind.) in buffer per the commercial protocol at a concentration of 1 mg tendon per 50 uL of papain solution. Relative fluorescence was measured at about 460 nm using a spectrophotometer (340 ATTC, Tecan US, Chapel Hill, N.C.) as reported by Verzijl et al. 2002. Maximum fluorescence was estimated from measurements of fibers incubated in ribose for 5 weeks.

collagenase = test: CEMKATS test of Alagebrium-treated 7-day glycated tendon fibers (Example 6); format: biochemical; conditions: 15 mM Alagebrium 12 hours
Procedure: 7-day glycated (cross-linked) tendon fibers are immersed for 12 hours in a solution of 15 mM Alagebrium dissolved in PBS at a temperature ranging from about 4° C. to 37° C. The fibers are removed from the solution, rinsed in PBS, and then soaked in fresh PBS for 15 minutes. After this soak, the fibers are removed from the PBS bath, rinsed with fresh PBS. The visible PBS is blotted off and the fibers are interfaced with the CEMKATS system. Mechanical strain is applied as described in Example 1. The fiber reaches a peak stress during loading and subsequently relaxes to an equilibrium stress. Once the specimen reaches equilibrium, collagenase would be added. The resulting change in load would be observed and recorded (which would be converted post-hoc to stress).

[2] = AGE cross-links in treated graft tissue by FTIR spectrum
Procedure: For an ACL reconstruction, a bone-patellar tendon-bone graft (other eligible grafts include hamstring tendon) is harvested from a cadaveric donor per standard collection procedure. Before freezing, the graft tissue is immersed in a sterile filtered isotonic buffered saline solution containing Alagebrium at a concentration of 0.1 mM for 8 hours at a temperature of ranging from about 4° C. to 37° C. Following incubation with the cross-link breaking reagent, the specimen is rinsed with sterile isotonic buffered saline and then is immersed in a rinsing fluid, such as sterile isotonic buffered saline, with a volume of at least 10 times greater than the estimated volume of the specimen. The specimen remains immersed in the rinse fluid for 30 minutes. The rinsing and immersion step is repeated twice more with fresh rinse solution each time. The tissue specimen is then removed from the fluid, excess liquid is allowed to drain, any visible fluid is gently blotted off with sterile gauze, and is then frozen as per standard procedure. For an ACL reconstruction, a bone-patellar tendon-bone graft (other eligible grafts include hamstring tendon) is harvested from the patient as per standard collecting procedure. Before use, the graft tissue is wrapped in sterile gauze and is soaked in a sterile filtered isotonic buffered saline solution containing Alagebrium at a concentration of 100 mM for 15 minutes at a temperature ranging from about 4° C. to 37° C. Following incubation with the cross-link breaking reagent, the specimen is unwrapped, rinsed with sterile istonic buffered saline and then is wrapped again with sterile gauze and immersed in a rinsing fluid, such as sterile isotonic buffered saline, with a volume of at least 10 times greater than the estimated volume of the specimen. The specimen remains immersed in the rinse fluid for 15 minutes. The tissue specimen is then removed from the fluid, unwrapped, excess liquid is allowed to drain, any visible fluid is gently blotted off with sterile gauze, and then the graft is utilized as per standard procedure. […]

[3] = Randomized control trial of treated grafts for ACL reconstruction; format: in vivo; conditions: for relative risk of negative outcomes (Lachman test, pivot-shift test, Drawer test): 6 and 12 months post-surgery
Procedure: For an ACL reconstruction, a bone-patellar tendon-bone graft (other eligible grafts include hamstring tendon) is harvested from a cadaveric donor per standard collection procedure. Before freezing, the graft tissue is immersed in a sterile filtered isotonic buffered saline solution containing Alagebrium at a concentration of 0.1 mM for 8 hours at a temperature of ranging from about 4° C. to 37° C. Following incubation with the cross-link breaking reagent, the specimen is rinsed with sterile isotonic buffered saline and then is immersed in a rinsing fluid, such as sterile isotonic buffered saline, with a volume of at least 10 times greater than the estimated volume of the specimen. The specimen remains immersed in the rinse fluid for 30 minutes. The rinsing and immersion step is repeated twice more with fresh rinse solution each time. The tissue specimen is then removed from the fluid, excess liquid is allowed to drain, any visible fluid is gently blotted off with sterile gauze, and is then frozen as per standard procedure. […] For an ACL reconstruction, a bone-patellar tendon-bone graft (other eligible grafts include hamstring tendon) is harvested from the patient as per standard collecting procedure. Before use, the graft tissue is wrapped in sterile gauze and is soaked in a sterile filtered isotonic buffered saline solution containing Alagebrium at a concentration of 100 mM for 15 minutes at a temperature ranging from about 4° C. to 37° C. Following incubation with the cross-link breaking reagent, the specimen is unwrapped, rinsed with sterile istonic buffered saline and then is wrapped again with sterile gauze and immersed in a rinsing fluid, such as sterile isotonic buffered saline, with a volume of at least 10 times greater than the estimated volume of the specimen. The specimen remains immersed in the rinse fluid for 15 minutes. The tissue specimen is then removed from the fluid, unwrapped, excess liquid is allowed to drain, any visible fluid is gently blotted off with sterile gauze, and then the graft is utilized as per standard procedure.

[4] = cadaveric bone-patellar tendon-bone graft, 0.1 mM for 8 hours

relative fluorescence of solubilized rat tail tendon [1]	Compound	EMK function values versus cross-linked control specimens (collagenase; higher strain (above about 3%))	EMK function values versus cross-linked control specimens (collagenase; low strain (less than about 1.25%))	amounts of AGE cross-links (AGE associated absorption peak, FTIR) ([2]; autologous bone-patellar tendon-bone graft, 100 mM for 15 minutes)	amounts of AGE cross-links (AGE associated absorption peak, FTIR) [2, 4]	stiffness of treated specimen [2, 4]	surgical outcome of ACL reconstruction ([3]; operating room treated autograft, 100 mM for 15 minutes)	surgical outcome of ACL reconstruction ([3]; tissue bank treated graft, 0.1 mM for 8 hours)	relative risk of negative outcomes (Lachman test, pivot-shift test, Drawer test) ([3]; versus placebo-treated grafts, operating room treated autograft)	relative risk of negative outcomes (Lachman test, pivot-shift test, Drawer test) ([3]; versus untreated grafts, tissue bank treated graft)
significantly increased	O=C[C@H](O)[C@H](O)[C@H](O)CO [ribose, D-Ribose]	–	–	–	–	–	–	–	–	–
–	Cc1sc[n+](CC(=O)c2ccccc2)c1C.[Cl-] [Alagebrium, 3-phenacyl-4,5-dimethylthiazolium chloride]	higher value for the control specimens than the Alagebrium-treated specimens	lower for controls than Alagebrium-treated specimens	significantly decreased amounts of AGE cross-links	significantly decreased amounts of AGE cross-links	less stiff after treatment	improved surgical outcome	improved surgical outcome	lower relative risk	lower relative risk
